From PubChem BioAssay AID179 (DTP/NCI, 2004)
The source made the active and inactive calls.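 The calls were made as follows: active = compounds giving half or more protection of infected cells from virus-caused growth loss, again on retest; inactive = the rest.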

Test system: CEM cells HIV-1 protection, formazan growth assay
Assay: NCI AIDS Antiviral Assay
Details: for IC50: measured here: growth of uninfected CEM cells
Summary of the method: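 Human CEM cells, uninfected and HIV-1-infected, received five drug concentrations, and growth was read by soluble formazan assay. Compounds giving at least 50% protection were retested; reproducible 100% protection defined confirmed active.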

| Compound | EC50 [µM] | IC50 [µM] | outcome |
| --- | --- | --- | --- |
| COC=C=CC(C)(C)OC | > 550 | > 550 |  |
| CC(Cc1ccccc1)N(C)Cc1nc(C2CCC([N+](=O)[O-])O2)no1 (stereo not drawn) | > 200 | 36.3 |  |
| COc1cc(/C=C2/SC(c3ccccc3)N(c3ccc(NC(C)=O)cc3)C2=O)cc(OC)c1OC (stereo not drawn) | > 200 | 117 |  |
| COc1ccccc1NC(=O)CC(=O)n1nc(-c2ccccc2)c(N=Nc2ccccc2[N+](=O)[O-])c1-c1ccccc1 | > 33.9 | > 33.9 |  |
| CC(C)=CC1CC(=[N+]=[N-])C(=O)C1(C)C (stereo not drawn) | > 186 | > 186 |  |
| Cc1nc2ccc(Br)cc2c(=O)n1-c1ccc(N)cc1 | > 200 | > 200 |  |
| CN1C(=O)C2(C=CCC2)c2ccccc21 (stereo not drawn) | > 1260 | 81.3 |  |
| COc1ccc(C2Oc3ccc(Cl)cc3C=C2[N+](=O)[O-])cc1 (stereo not drawn) | > 200 | 0.447 |  |
| COc1cccc(C2SCC(=O)N2c2ccc(-c3ccc(-n4c(-c5ccccc5)nc5ccccc5c4=O)cc3)cc2)c1OC (stereo not drawn) | > 200 | 63.1 |  |
| CC1(C)Oc2ccccc2N2O[C@@H]3C(=O)N(c4ccccc4)C(=O)[C@@H]3C21c1ccccc1 (stereo partly drawn) |  |  | inactive |
| O=C1C2C(C(=O)N1c1ccccc1)C1(c3ccccc3)CCC2(C(=O)c2ccccc2)O1 (stereo not drawn) | > 200 | 50.1 |  |
| COCCCNC(=O)C1C(=O)C(=O)N(CCCOC)C1=O (stereo not drawn) |  |  | inactive |
| CCN(CC)CC(C)(C)C(=O)/C=C/c1ccc(C)cc1 |  |  | inactive |
| C#CCOC(=O)c1ccccc1OC(C)=O | > 200 | > 200 |  |
| CC1=CC(C)(C)SC(SSSC2=NC(C)=CC(C)(C)S2)=N1 | > 200 | 38.9 |  |
| CCCCCCCCCCCCCCC[C@@H](O)C[N+](C)(C)CCO | > 200 | 2.82 |  |
| O=[N+]([O-])c1ccc(-c2nnc(C34CC5CC(CC(C5)C3)C4)o2)cc1 | > 200 | > 200 |  |
| CC(C)CCCC(C)C1CCC2C3CC[C@H]4C[C@@H](CCC=C(c5cc(Cl)c(OCc6cccc(B7OC(C)(C)C(C)(C)O7)c6)c(C(=O)OCc6cccc(B7OC(C)(C)C(C)(C)O7)c6)c5)c5cc(Cl)c(OCc6cccc(B7OC(C)(C)C(C)(C)O7)c6)c(C(=O)OCc6cccc(B7OC(C)(C)C(C)(C)O7)c6)c5)CC[C@]4(C)C3CC[C@]12C (stereo partly drawn) | > 50.1 | > 50.1 |  |
| O=C(Nc1cc2c(oc1=O)CCCCCC2)c1cnccn1 | > 50.1 | > 50.1 |  |
| N#Cc1c(N)oc(-c2cccc([N+](=O)[O-])c2)c1C#N | > 200 | 10.7 |  |
| COC(=O)N1[C@@H]2C=CC=CC=C2[C@@H](OC)N1C(=O)OC | > 158 | 89.1 |  |
| O=S1(=O)Oc2cccc3cccc1c23 |  |  | inactive |

| Compound | EC50 [µM] | IC50 [µM] | outcome |
| --- | --- | --- | --- |
| C/C(CC(=O)Nc1ccc(Cl)c(Cl)c1)=N/NC(=O)C[n+]1ccccc1 | > 162 | > 162 |  |
| O=C(OCc1c(-c2ccccc2)nn(-c2ccccc2)c1COC(=O)Oc1ccccc1)Oc1ccccc1 | > 200 | > 200 |  |
| O=c1c(O)c(-c2ccc(O)cc2O)oc2cc(O)cc(O)c12 |  |  | inactive |
| CN(C)C(=S)N1C(=S)N(c2ccccc2)C(=Nc2ccccc2)C1=Nc1ccccc1 | > 200 | 170 |  |
| CC=C(c1cc(Cl)c(OC)c(C(=O)OC)c1)c1cc(Cl)c(OC)c(C(=O)OC)c1 | > 2 | 0.0631 |  |
| Cc1nc(N)c(N2CCNCC2)c(=O)[nH]1 | > 200 | > 200 |  |
| Cc1nc2ccccc2c(=O)n1/N=C/c1ccc(N(C)C)cc1 | > 200 | > 200 |  |
| NC(=O)NCc1c(C(N)=O)ncn1Cc1ccccc1 |  |  | inactive |
| CC1(C)C2CC[C@]3(C)C(C(=O)C=C4[C@@H]5C[C@@](C)(C(=O)O)CC[C@]5(C)CCC43C)[C@@]2(C)CC[C@@H]1OC1OC(C(=O)O)C(O)C(O)C1OC1OC(C(=O)O)C(O)C(O)C1O (stereo partly drawn) (tested in a mixture with another compound) |  |  | inactive |
| CC(N)CNCCCNCCNCCCNCO (stereo not drawn) | > 100 | > 100 |  |
| C[C@@](O)(/C=C/[C@H]1CC=CC(=O)O1)[C@@H](C[C@@H](O)\C=C/C=C\C=C\CO)OP(=O)(O)O |  |  | inactive |
| CCOC(=O)C1=C(C)NC(C)=C(C(=O)OCCNC(=O)c2ccc(N=[N+]=[N-])cc2)C1c1ccccc1C(F)(F)F (stereo not drawn) | > 200 | 10.5 |  |
| CC(=O)c1cccc(N2COC(C)(C)c3nc4ccccc4n3C2)c1 | > 200 | 107 |  |
| Nc1nc2c(ncn2C2OC(CO)(C(F)(F)F)C(O)C2O)c(=O)[nH]1 (stereo not drawn) | > 200 | > 200 |  |
| OCCN(CCO)CCn1cnc2c(NCc3ccccc3)ncnc21 | > 200 | > 200 |  |
| CCc1cccc(C(C)CC)c1NC(=O)CC1C(=O)Nc2ccccc2S1=O (stereo not drawn) | > 46.8 | > 46.8 |  |
| CN(/N=C/c1ccccc1C(=O)O)C1=NCCCCN1 | > 200 | > 200 |  |
| O=C1OCOC1C1OCOC1=O (stereo not drawn) | > 200 | 19.1 |  |
| O=C1C(c2ccc3ccccc3n2)=C(O)c2ccccc21 |  |  | inactive |
| [Se]c1nc2ccccc2o1 | > 224 | 53.7 |  |
| O[C@H]1[C@H](O)[C@@H](O)CN2CC[C@H](O)[C@H]12 | 204 | 1260 |  |
| O=C1c2ccccc2C(=O)N1CCC[P+](c1ccccc1)(c1ccccc1)c1ccccc1 | > 200 | 95.5 |  |

| Compound | EC50 [µM] | IC50 [µM] | outcome |
| --- | --- | --- | --- |
| C/C=C/CC1(CC)Oc2cccnc2-n2cccc2C1=O (stereo not drawn) | > 200 | > 100 |  |
| Cc1cc(C)nc(NS(=O)(=O)c2ccc(N)cc2)n1 | > 200 | > 200 |  |
| COc1ccc(-c2c[se]c(=S)s2)cc1 | > 18.2 | > 18.2 |  |
| Cc1ccc2c(c1)[nH]c(=S)n2C=C(C#N)C#N | > 200 | > 200 |  |
| C=C(c1ccccc1)c1ccccc1-c1cc(-c2ccccc2)cc(-c2ccccc2)n1 | > 200 | 25.1 |  |
| COc1ccc(/C=C2\CCCC(CN(C)C)C2=O)cc1 (stereo not drawn) | > 200 | 1.02 |  |
| COC(=O)CCCC=C(c1cc(C)c(OC)c(Br)c1)c1cc(C)c(OC)c(Br)c1 | > 200 | 39.8 |  |
| COC[C@@H](N=CN1CCc2cc(OC)ccc2C1)C(C)C | > 871 | > 871 |  |
| COc1ccc(N=C2C(=S)N(c3ccc(OC)cc3)/C(=N/S(=O)(=O)c3ccccc3)N2c2ccccc2)cc1 | > 20 | 0.389 |  |
| Clc1ccc2sc3c(c2c1)CCNC3 |  |  | inactive |
| CSS(=O)(=O)C(c1ccccc1)c1ccccc1 | > 112 | 49 |  |
| Nc1ccccc1-c1nc2ccncc2[nH]1 | > 851 | 302 |  |
| CC1CN(C(=O)CN2CCC(CCCCN(C)C)CC2)c2ccccc2NC1=O (stereo not drawn) | > 251 | > 251 |  |
| COC(=O)[C@@H]1COC(=O)N1 | > 200 | > 200 |  |
| CC(NS(=O)(=O)c1ccccc1)C(=O)O (stereo not drawn) |  |  | inactive |
| COc1ccc(Cc2nnc(Nc3ccc(Br)cc3)[nH]c2=O)cc1OC | > 200 | 33.9 |  |
| COc1ccc(CCNC(=O)Cc2cc(OC)c(OC)cc2Br)cc1OC | > 81.3 | > 81.3 |  |
| COc1ccc(-c2oc(/C=N/NC(N)=S)c([N+](=O)[O-])c2-c2ccc(OC)c(OC)c2)cc1OC | > 20.4 | > 20.4 |  |
| Cc1cn([C@H]2CN(O)C[C@@H](CO)O2)c(=O)[nH]c1=O | > 200 | > 200 |  |
| O=C(/C=C/c1ccccc1Cl)c1ccc(Cl)cc1Cl | > 3.31 | > 3.31 |  |
| N#Cc1c(-c2ccccc2)nc(-c2ccccc2)sc1=S | > 100 | > 100 |  |
| CC1=C(C(=O)NCC(C)O)CC(C(=O)NCC(C)O)=C(C)N1 (stereo not drawn) | > 200 | > 200 |  |

| Compound | EC50 [µM] | IC50 [µM] | outcome |
| --- | --- | --- | --- |
| COc1cc(C2c3cc4c(cc3C(NCC(O)CO)C3COC(=O)[C@H]23)OCO4)cc(OC)c1OC (stereo partly drawn) |  |  | inactive |
| C=CCN1CC2CON(C(=O)C(OC)(c3ccccc3)C(F)(F)F)C2C1C(C)C (stereo not drawn) | > 200 | 37.2 |  |
| N#Cc1ccc(Nc2nc3nc[nH]c3c(=O)[nH]2)cc1 | > 200 | > 200 |  |
| O=S(Cc1ccccc1)OOCCCCOS(=O)OCc1ccccc1 (stereo not drawn) | > 200 | 4.17 |  |
| COC(=O)CC(NC(=O)OCc1ccccc1)C(C(=O)OCc1ccccc1)C(C)(OC)OC (stereo not drawn) | > 50.1 | 20.4 |  |
| CC1=N/C(=C\c2ccc([N+](=O)[O-])cc2)C(=O)O1 | > 155 | > 155 |  |
| Cc1ccnc2c1c(=O)c1ccccc1n2C | > 151 | 41.7 |  |
| O=C1CCCc2ccc3c(c21)CC1(Cc2ccccc2C1)C3 | > 200 | 25.1 |  |
| COc1ccc(/C=C/C(=O)c2cc(OC)cc(OC)c2)cc1 | > 200 | 0.955 |  |
| O=C1OC(OC2OC(=O)c3ccccc32)c2ccccc21 (stereo not drawn) | > 200 | > 200 |  |
| CCc1cccc(C)c1NC(=O)NS(=O)(=O)c1ccc(C)cc1 | > 759 | > 759 |  |
| N[C@@H](CSSc1ccccc1C(=O)O)C(=O)O | > 200 | > 200 |  |
| C/C(N=NS(=O)(=O)c1ccc(C)cc1)=C1\C=CC=CN1O |  |  | inactive |
| CCCCCC(=O)c1ccc2[nH]c3c(C)cc([N+](=O)[O-])c(C)c3c2c1 | > 4.27 | > 4.27 |  |
| CCN1c2ccccc2-n2c(C)nnc2-c2c1n[nH]c2-c1ccccc1 | > 200 | 28.2 |  |
| Cc1nn(C(=O)Cc2ccccc2)c2c1C(c1ccc(/C=C/c3ccccc3)cc1)SC(N)=N2 (stereo not drawn) | 148 | > 200 |  |
| Cc1nn(C(=O)c2ccc(Cl)cc2)c2c1C(c1ccc(O)cc1)SC(N)=N2 (stereo not drawn) | > 200 | > 200 |  |
| CCOC(=O)NN(C(=O)OCC)C(C(=O)C1=CCCCC1)N(NC(=O)OCC)C(=O)OCC | > 200 | > 200 |  |
| CCN(CC)/C(=C\Cl)Nc1ccccn1 | > 759 | 117 |  |
| N#C/C(=C\c1ccc(O)c(O)c1)C(=O)c1ccc(O)c(O)c1 | > 200 | 51.3 |  |
| N#Cc1nc(/C=C/c2cccs2)oc1N | > 200 | 107 |  |
| CC(C)c1cccc(C(C)C)c1NC(=O)/C(Cc1nc2ccc(Cl)cc2[nH]c1=O)=N\NC(=O)C[N+](C)(C)C | > 162 | > 162 |  |
